From patent US20250197425A1, “2,6,9-TRISUBSTITUTED PURINES” (ASTRAZENECA AB, priority 2022, published 2025)
≈ marks a conversion by molar mass, not a printed value. Read-outs that look alike come from different tables or passages of the source.

Legend:
CDK2:CCNE1 = CDK2:CCNE1 (Homo sapiens (Human), UniProt P24941); test: NanoBRET assay in MCF-7 cells, CDK2; format: cell-based; details: transfected MCF-7 cells, 2 hours, n = 1 or average
Summary of the method: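 In live MCF-7 cells, compound added followed by NanoBRET TE Tracer K-9 (stock 200 μM) for CDK2, 2 h at 37° C, 5% CO2.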

CDK1:CCNB1 = CDK1:CCNB1 (Homo sapiens (Human), UniProt P06493); test: NanoBRET assay in MCF-7 cells, CDK1; format: cell-based; details: NanoBRET, transfected MCF-7 cells, 2 hours; n = 1 or average; read-out: CDK1 IC50
Summary of the method: (§1)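 Transiently transfected MCF-7 cells expressing CDK1:CCNB1 or CDK4:CCND1 were treated with compound plus tracer (CDK1: Tracer K-9, 400 μM stock; CDK4: Tracer K-7, 100 μM stock) for 2 h at 37 °C.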

CDK4:CCND1 = CDK4:CCND1 (Homo sapiens (Human), UniProt P11802); test: NanoBRET assay in MCF-7 cells, CDK4; format: cell-based; details: NanoBRET, transfected MCF-7 cells, 2 hours; n = 1 or average; read-out: CDK4 IC50
Summary of the method: as §1

[1] = tested on: NPM phosphorylation (Thr199, CDK2-cyclin E complex); test: NPM phosphorylation imaging assay in MCF-7 cells; format: cell-based; details: Homo sapiens, MCF7, 2 hours, 4N DNA cells
Summary of the method: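 MCF-7 cells were fixed, permeabilised and immunostained, then imaged for phospho-NPM (Thr199), a CDK2-cyclin E site. Analysis was gated on 4N-DNA cells by Hoechst staining. Signals were normalised to controls and fitted for IC50.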

[2] = tested on: POLR2A Ser2 phosphorylation (CDK9); test: POLR2A Ser2 phosphorylation imaging assay in MCF-7 cells; format: cell-based; details: Homo sapiens, MCF7, 2 h, read-out: POLR2A Ser2 phosphorylation IC50
Summary of the method: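 MCF-7 cells were fixed, permeabilised and immunostained for POLR2A phospho-Ser2, then imaged by high-content microscopy. Levels were normalised to controls and IC50 values derived.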

MCF-7 cells = test: Cellular proliferation EdU assay, MCF-7; format: cell-based; details: Homo sapiens, MCF7, 48 h, EdU assay, two days; read-out: MCF-7 IC50
Summary of the method: (§2)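 MCF-7 (800 cells/well) and OVCAR3 (1200 cells/well) in RPMI with 10% FBS exposed to compounds for two days at 37 °C.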

OVCAR3 cells [3] = test: Cellular proliferation EdU assay, OVCAR3; format: cell-based, human; details: Homo sapiens, OVCAR-3, 48 h, EdU assay, two days; read-out: OVCAR3 IC50
Summary of the method: as §2

[4] = CLint assessment in human hepatocytes (HH); format: in vitro ADME; set-up: unit not given here; details: pH 7.4
Protocol: Samples were shaken at 800 rpm for 2 minutes and centrifuged at 4000 rpm for 20 minutes at 4° C. to pellet precipitated protein. The supernatant fraction was diluted 1:5 with deionized water, shaken at 1000 rpm for 2 minutes, and further diluted 1:1 with deionized water. Samples were analyzed by LC-MS/MS.

[5] = CLint assessment in human liver microsomes (HLM); format: in vitro ADME; details: 1 μM
Summary of the method: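 Microsomes preincubated 8 min with NADPH, then compound added and incubated 30 min at 37° C. Remaining compound measured by LC-MS/MS. t1/2 and CLint calculated, with CLint scaled to incubation volume per mg microsomal protein.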

[6] = Aqueous thermodynamic solubility, shake-flask; format: physicochemical; details: aqueous phosphate buffer, 25 °C, pH 7.4, aqueous buffer, thermodynamic from solid, phosphate buffer 0.1 M, pH 7.4, 24 hours
Summary of the method: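 Dried compound (after DMSO evaporation) was equilibrated in 0.1 M phosphate buffer pH 7.4 with stirring for 24 h at 25° C. Undissolved material was removed by double centrifugation, and the supernatant was diluted in water and quantified by UPLC/MS/MS.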

OVCAR3 cells [7] = test: Cell proliferation CyQUANT assay, OVCAR3; format: cell-based; details: Homo sapiens, OVCAR-3, 168 h; CyQUANT cell counts, 7 days
Protocol: (§3) An imaging-based assay was used to investigate changes in cell number in OVCAR3 cells (CCNE1-amplified ovarian cancer cell line) and SKOV3 cells (non-amplified ovarian cancer cell line) treated with test compounds.
(§4) Cells were plated in 384 well plates (Perkin-Elmer 6057300) in RPMI-1640/10% FBS/1× L-Glu at 500 cells per well in 30 μL and incubated with test compound at 37° C. and 5% CO2 for 7 days. Cells were then stained using the CyQuant Direct Cell Proliferation Assay Kit (Thermo Cat #C7026) in accordance with the kit protocol. The stained cells were imaged using an Operetta high content imager to generate cell counts and IC50 values were calculated relative to DMSO controls.

SKOV3 cells = test: Cell proliferation CyQUANT assay, SKOV3; format: cell-based; details: Homo sapiens, SK-OV-3, 168 h; CyQUANT cell counts, 7 days
Protocol: as §3, §4

[8] = tested on: OVCAR3 human ovarian cancer xenograft; test: Anti-tumor effect in CCNE1 amplified ovarian xenograft model OVCAR3; format: in vivo, mice; details: for % INHIBITION: 28 days
Protocol: 15 Million OVCAR3 human ovarian cells were implanted subcutaneously in the right flank of female CB17 SCID mice. Mice were randomized into groups of 8 when average tumor volume reached approximately 160 mm^3. […] Palbociclib was dosed orally once daily.

[9] = tested on: CTG-3298 human CDK4/6 resistant ER+ breast cancer xenograft; test: Anti-tumor effect in CTG-3298 CDK4/6 resistant ER+ breast cancer xenograft model; format: in vivo, mice; details: for % INHIBITION (end of dosing): 28 days
Protocol: CTG-3298 ER+ breast xenograft tumors were harvested from donor mice and cut into fragments approximately 50 mm^3 in volume and then reimplanted adjacent to the #3 mammary fat pad.
CTG-3298 ER+ Breast PDX fragments were implanted orthotopically adjacent to the #3 mammary fat pad using a 10-gauge trocar in female NSG mice. […] Palbociclib was dosed orally once daily.

[10] = tested on: CTG-3283 human CDK4/6 resistant ER+ breast cancer xenograft; test: Anti-tumor effect in CTG-3283 CDK4/6 resistant ER+ breast cancer xenograft model; format: in vivo, mice; details: for % INHIBITION (end of dosing): 28 days
Protocol: CTG-3283 ER+ breast xenograft tumors were harvested from donor mice and cut into fragments approximately 50 mm^3 in volume and then reimplanted adjacent to the #3 mammary fat pad.
CTG-3283 ER+ Breast PDX fragments were implanted orthotopically adjacent to the #3 mammary fat pad using a 10-gauge trocar in female NSG mice. […] Palbociclib was dosed orally once daily.

OVCAR3 cells [11] = test: Effect on cell cycle in OVCAR3 cell line (flow cytometry); format: cell-based, human; details: 20 to 24 hours, 0.03, 0.1, 0.3, 1, and 3 μM
Protocol: Compounds were tested in the CCNE1-amplified ovarian cell line OVCAR3 to assess their effect on cell cycle phases G1 and S and potential off-target effects on cell cycle phases G2 and M.
OVCAR3 cells were seeded at 60,000 cells per well in 24 well plates, 4 wells per sample, in RPMI with 10% Fetal bovine serum. Test compounds were diluted in 96 well plates in dimethyl sulfoxide (DMSO) and then added to the wells containing the cells. The 24 well plates were placed in an incubator maintained at 37° C. and 5% CO2 and incubated for 20 to 24 hours. The next day an EdU assay was performed following the manufacturer's protocol (Thermo Fisher, C10425 EdU Alexa Fluor 488). Antibody staining was carried out using PE Mouse Anti-Cleaved PARP (BD Biosciences Catalog No. 552933) and 4′,6-diamidino-2-phenylindole (DAPI). Cells were then analyzed by flow cytometry.

[12] = tested on: pRB (S780) in OVCAR3 human ovarian cancer xenograft; test: Pharmacodynamic effect (pRB) in OVCAR3 xenograft model; format: in vivo, mice; details: 3 days dosing, Western blot
Protocol: 15 Million OVCAR3 human ovarian cells were implanted subcutaneously in the right flank of female CB17 SCID mice. […] Palbociclib was dosed orally once daily.

[13] = tested on: pRB (S780) in MCF7-PC1 human palbociclib resistant ER+ breast cancer xenograft; test: Pharmacodynamic effect (pRB) in MCF7-PC1 palbociclib resistant ER+ breast cancer xenograft model; format: in vivo, mice; details: 3 days dosing, Western blot
Protocol: MCF7-PC1 cells were generated as described in Example 70.
Palbociclib was dosed orally once daily.

[14] = tested on: pRB (S780) in CTG-3298 human CDK4/6 resistant ER+ breast cancer xenograft; test: Pharmacodynamic effect (pRB) in CTG-3298 xenograft model; details: 3 days dosing, Western blot
Protocol: A study was conducted to evaluate the in vivo pharmacodynamic response of monotherapy with a CDK2 inhibitor and combination therapy with a CDK2 inhibitor and palbociclib in a CTG-3298 human CDK4/6 resistant ER+ breast cancer xenograft model.
CTG-3298 fragments were implanted adjacent to the #3 mammory fat pad of female NSG mice. […] Mice were treated for 3 days with vehicle (0.5% HPMC/0.1% Tween 80), palbociclib at 50 mg/kg, test compound at 30 or 60 mg/kg, or the combination of test compound and palbociclib. Test compound was dosed orally twice daily 10 hours apart on day one and two and a single dose in the morning on day 3. Palbociclib was dosed orally once daily. When administered in combination with test compound, palbociclib was dosed 4 hours after the morning dose of test compound on days one and two and 15 minutes after the morning dose of test compound on day 3. The time course of sample collection was as follows: (i) the test compound at 30 mg/kg groups with and without palbociclib treatment were collected at 2, 4 and 8 hours; (ii) all other groups were collected at 2, 8, and 24 hours. pRB (S780) was evaluated by western blotting.

[15] = tested on: pRB (S780) in CTG-3283 human CDK4/6 resistant ER+ breast cancer xenograft; test: Pharmacodynamic effect (pRB) in CTG-3283 xenograft model; details: 3 days dosing, Western blot
Protocol: A study was conducted to evaluate the in vivo pharmacodynamic response of monotherapy with a CDK2 inhibitor and combination therapy with a CDK2 inhibitor and palbociclib in a CTG-3283 human CDK4/6 resistant ER+ breast cancer xenograft model.
CTG-3283 fragments were implanted adjacent to the #3 mammory fat pad of female NSG mice. […] Mice were treated for 3 days with vehicle (0.5% HPMC/0.1% Tween 80), palbociclib at 50 mg/kg, test compound at 30 or 60 mg/kg, or the combination of test compound and palbociclib. Test compound was dosed orally twice daily 10 hours apart on day one and two and a single dose in the morning on day 3. Palbociclib was dosed orally once daily. When administered in combination with test compound, palbociclib was dosed 4 hours after the morning dose of test compound on days one and two and 15 minutes after the morning dose of test compound on day 3. The time course of sample collection was as follows: (i) the test compound at 30 mg/kg groups with and without palbociclib treatment were collected at 2, 4, and 8 hours; (ii) all other groups were collected at 2, 8, and 24 hours. pRB (S780) was evaluated by western blotting.

[16] = tested on: pHH3 in T47D P1 human palbociclib resistant ER+ breast cancer xenograft; test: Pharmacodynamic effect in T47D P1 palbociclib resistant ER+ breast xenograft model; details: 3 days dosing, Western blot
Protocol: A study was conducted to evaluate the in vivo pharmacodynamic response of monotherapy with a CDK2 inhibitor and combination therapy with a CDK2 inhibitor and palbociclib in a T47D P1 human palbociclib resistant ER+ breast cancer xenograft model.
T47D P1 cells were generated to be resistant to palbociclib through chronic treatment with palbociclib over the course of about three months with increasing concentrations up to 3 μM. The resulting cells (T47D P1) were then banked for use in subsequent experiments. T47D P1 cells were grown in phenol red free RPMI 1640 supplemented with 10% fetal bovine serum and 3 μM palbociclib. Cells were harvested with 0.25% trypsin and resuspended in PBS/phenol red free Matrigel (50/50).
10 Million T47D P1 cells were implanted orthotopically into the #3 mammary fat pad of female NSG mice. 0.5 mg 90 day release 17B-estradiol pellets from Innovative Research of America were implanted subcutaneously three days prior to cell implant. […] The time course of sample collection was as follows: (i) the test compound at 30 mg/kg groups with and without palbociclib treatment were collected at 2, 4 and 8 hours; and (ii) all other groups were collected at 2, 8 and 24 hours. pHH3 was evaluated by western blotting.

OVCAR3 cells [17] = test: Senescence β-galactosidase assay, OVCAR3; format: cell-based, human; details: 5 days, single agent
Protocol: Cells were then stained with a fluorescent dye to detect senescence-associated β-galactosidase (CellEvent Senescence Green detection kit, Thermo #C10850), diluted 1:1000 in the provided buffer, and incubated at 37° C. for 2 hours without CO2 in accordance with the manufacturer's instructions. DNA staining was performed using Hoechst 33342, diluted 1:2500 in PBS, for 15 minutes at room temperature, followed by two washes with PBS. Sample imaging was performed on a PerkinElmer Operetta CLS at lOX magnification to detect Hoechst 33342 (nuclei) and Alexa488 (senescence stain). Image analysis was performed in Harmony 4.1 software (PerkinElmer) to identify cells based on nuclear staining. Mean Alexa488 fluorescence intensity was measured within each cell, and the average was taken across all cells observed within each well. […] Data fitting was performed using Genedata Screener (Genedata AG) and combination effect was assessed using the highest single agent (HSA) model.

[18] = Compound 6 at 30 mg/kg orally twice daily
[19] = Compound 6 at 60 mg/kg orally twice daily
[20] = Palbociclib at 50 mg/kg orally once daily

Sequence of CDK4:CCND1 (P11802 whole entry): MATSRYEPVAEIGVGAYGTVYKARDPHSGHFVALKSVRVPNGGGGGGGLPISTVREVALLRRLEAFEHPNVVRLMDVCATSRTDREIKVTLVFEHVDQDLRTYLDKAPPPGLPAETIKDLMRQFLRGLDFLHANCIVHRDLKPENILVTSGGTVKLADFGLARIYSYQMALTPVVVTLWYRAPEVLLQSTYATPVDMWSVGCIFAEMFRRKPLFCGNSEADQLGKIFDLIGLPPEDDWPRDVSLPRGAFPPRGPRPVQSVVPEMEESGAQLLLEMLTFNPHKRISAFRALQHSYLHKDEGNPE
Sequence of CDK4:CCND1 (P24385 whole entry partner): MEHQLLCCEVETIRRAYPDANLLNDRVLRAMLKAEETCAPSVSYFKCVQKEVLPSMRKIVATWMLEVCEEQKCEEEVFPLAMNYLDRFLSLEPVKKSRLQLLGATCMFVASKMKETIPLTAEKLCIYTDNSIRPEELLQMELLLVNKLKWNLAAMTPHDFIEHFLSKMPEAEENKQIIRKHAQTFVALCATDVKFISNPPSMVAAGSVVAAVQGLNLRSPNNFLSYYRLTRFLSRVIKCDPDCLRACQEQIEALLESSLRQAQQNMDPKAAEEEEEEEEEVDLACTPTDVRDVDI
Sequence of CDK1:CCNB1 (P06493 whole entry): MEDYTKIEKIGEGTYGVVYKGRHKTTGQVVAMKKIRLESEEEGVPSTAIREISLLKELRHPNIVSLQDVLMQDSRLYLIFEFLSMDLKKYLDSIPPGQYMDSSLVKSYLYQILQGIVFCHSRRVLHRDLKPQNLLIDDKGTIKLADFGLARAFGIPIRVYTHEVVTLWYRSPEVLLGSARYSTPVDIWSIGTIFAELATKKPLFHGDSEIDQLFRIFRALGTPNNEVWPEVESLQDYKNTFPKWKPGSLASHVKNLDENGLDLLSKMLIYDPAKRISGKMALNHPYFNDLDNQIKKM
Sequence of CDK1:CCNB1 (P14635 whole entry partner): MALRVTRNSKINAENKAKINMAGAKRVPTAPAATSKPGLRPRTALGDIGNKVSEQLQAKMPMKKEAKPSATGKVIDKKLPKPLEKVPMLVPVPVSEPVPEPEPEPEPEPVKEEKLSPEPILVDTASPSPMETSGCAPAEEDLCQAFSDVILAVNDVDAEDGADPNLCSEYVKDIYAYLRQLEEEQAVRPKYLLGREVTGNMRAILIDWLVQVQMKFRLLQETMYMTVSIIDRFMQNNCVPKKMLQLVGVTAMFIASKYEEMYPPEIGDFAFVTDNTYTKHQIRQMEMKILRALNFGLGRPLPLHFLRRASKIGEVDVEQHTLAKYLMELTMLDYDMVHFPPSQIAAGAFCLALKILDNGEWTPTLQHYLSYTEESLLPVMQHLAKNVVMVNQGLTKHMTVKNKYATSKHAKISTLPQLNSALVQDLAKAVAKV

## CC[C@H](CO)Nc1nc(N[C@H]2CCN(S(=O)(=O)NC)C2)c2ncn(CC)c2n1 [Example 47, (S)-3-((9-ethyl-2-(((R)-1-hydroxybutan-2-yl)amino)-9H-purin-6-yl)amino)-N-methylpyrrolidine-1-sulfonamide]
CDK2:CCNE1
  IC50: 35 nM
CDK1:CCNB1
  IC50: 562 nM
CDK4:CCND1
  IC50: 7.4 µM
[1]
  IC50: 152 nM
[2]; MCF-7 cells, 2 hours
  IC50: > 30 µM
MCF-7 cells
  IC50: 705 nM
OVCAR3 cells [3]
  IC50: 185 nM
[4]
  microsomal CLint at 1 μM: < 1
[5]
  HLM CLint: 26 µL/min/mg
[6]
  solubility at 24 h: 253 µM (≈ 104 µg/mL)

## CCNS(=O)(=O)N1CC[C@H](Nc2nc(N[C@@H](CC)[C@@H](C)O)nc3c2ncn3CC)C1 [Compound 6, (S)—N-ethyl-3-((9-ethyl-2-(((2R,3S)-2-hydroxypentan-3-yl)amino)-9H-purin-6-yl)amino)pyrrolidine-1-sulfonamide]
[2]
  IC50: > 19.3 µM
MCF-7 cells
  IC50: 278 nM
OVCAR3 cells [7]
  IC50: 77 nM
SKOV3 cells
  IC50: 1960 nM
[8]; [18]
  % INHIBITION: 31%
[8]; Compound 6 at 100 mg/kg orally twice daily
  % INHIBITION: 94%
[8]; Compound 6 at 150 mg/kg orally twice daily
  % INHIBITION: >100%
[8]; Compound 6 at 150 mg/kg, compared to Compound 6 at 100 mg/kg group
  durability on monitoring for regrowth: showed increased durability
[9]; [18]
  % INHIBITION (end of dosing): 82%
[9]; [19]
  % INHIBITION (end of dosing): 87%
[9]; Compound 6 at 60 mg/kg without palbociclib
  durability of response: more durable response
[10]; CTG-3283 xenograft, Compound 6 at 30 and 60 mg/kg monotherapy or combination with palbociclib
  tumor growth inhibition: lower inhibition of tumor growth
[10]; [18]
  % INHIBITION (end of dosing): 28%
[10]; [19]
  % INHIBITION (end of dosing): 21%
OVCAR3 cells [11]
  effect on cell cycle phase: increased the population of cells in the G0 and G1 phases
[12]
  pRB levels: time dependent inhibition of pRB
[13]
  pRB levels: time dependent inhibition of pRB
[14]
  pRB levels: dose dependent inhibition of pRB
[15]
  pRB levels: dose dependent inhibition of pRB
[16]
  pHH3 levels: time dependent inhibition of pHH3

## CC(=O)c1c(C)c2cnc(Nc3ccc(N4CCNCC4)cn3)nc2n(C2CCCC2)c1=O [Palbociclib, reference compound]
[8]; [20]
  % INHIBITION: 9%
[9]; [20]
  % INHIBITION (end of dosing): 49%
[10]; [20]
  % INHIBITION (end of dosing): 46%
OVCAR3 cells [17]
  induction of senescence: no effect was observed
